In patent US7786131B2, “Pyrimido[5,4-d]pyrimidines derivatives as irreversible inhibitors of tyrosine kinases” (Warner-Lambert Company, priority 1996, dated 2010):
Read-outs that look alike come from different tables or passages of the source.

Columns and labels:
[1] = target: EGF receptor tyrosine kinase (Homo sapiens, UniProt P00533); assay: Tyrosine kinase assay, isolated EGF receptor tyrosine kinase; type: biochemical
[2] = target: T1, EGF receptor autophosphorylation in A431 cells (Homo sapiens, UniProt P00533); assay: Autophosphorylation assay in A431 cells; type: cell-based
T1 construct: A431 human epidermoid carcinoma cells were grown in 6-well plates; endogenous in cells; host or cells: A431 human epidermoid carcinoma cells
T1 sequence (P00533 25-1210): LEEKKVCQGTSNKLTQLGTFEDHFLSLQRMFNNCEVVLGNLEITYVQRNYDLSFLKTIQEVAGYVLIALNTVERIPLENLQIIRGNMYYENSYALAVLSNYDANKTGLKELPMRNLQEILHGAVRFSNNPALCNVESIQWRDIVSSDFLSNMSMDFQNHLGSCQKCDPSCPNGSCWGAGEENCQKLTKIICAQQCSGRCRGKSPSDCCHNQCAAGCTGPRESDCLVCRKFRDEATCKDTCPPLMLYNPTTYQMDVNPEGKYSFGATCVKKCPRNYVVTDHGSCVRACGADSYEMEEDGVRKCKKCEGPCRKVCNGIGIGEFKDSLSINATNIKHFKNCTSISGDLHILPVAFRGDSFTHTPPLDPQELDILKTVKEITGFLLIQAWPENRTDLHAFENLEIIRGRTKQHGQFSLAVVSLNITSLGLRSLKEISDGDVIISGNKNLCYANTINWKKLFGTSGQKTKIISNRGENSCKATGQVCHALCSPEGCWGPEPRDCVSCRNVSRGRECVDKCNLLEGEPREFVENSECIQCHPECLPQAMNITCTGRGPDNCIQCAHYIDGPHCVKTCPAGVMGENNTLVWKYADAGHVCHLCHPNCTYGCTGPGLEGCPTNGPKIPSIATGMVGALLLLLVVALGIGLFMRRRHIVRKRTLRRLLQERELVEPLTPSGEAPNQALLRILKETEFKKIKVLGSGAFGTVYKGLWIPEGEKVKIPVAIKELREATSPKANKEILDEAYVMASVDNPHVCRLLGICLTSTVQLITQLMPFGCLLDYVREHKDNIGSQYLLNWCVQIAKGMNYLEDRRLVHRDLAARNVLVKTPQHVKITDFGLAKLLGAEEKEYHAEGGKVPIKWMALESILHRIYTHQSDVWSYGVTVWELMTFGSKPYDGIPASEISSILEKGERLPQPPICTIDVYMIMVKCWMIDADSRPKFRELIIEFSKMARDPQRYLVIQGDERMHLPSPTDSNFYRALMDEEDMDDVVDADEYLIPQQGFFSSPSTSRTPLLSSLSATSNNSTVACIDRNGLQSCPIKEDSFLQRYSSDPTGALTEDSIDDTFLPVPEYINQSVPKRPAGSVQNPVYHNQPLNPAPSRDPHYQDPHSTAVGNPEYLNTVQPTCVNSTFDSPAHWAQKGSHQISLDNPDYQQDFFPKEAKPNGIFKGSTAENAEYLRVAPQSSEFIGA
Method: (§1) Extracts were made by lysing the monolayers in 0.2 mL of boiling Laemlli buffer (2% sodium dodecyl sulfate, 5% beta-mercaptoethanol, 10% glycerol and 50 mM tris[hydroxymethyl]aminomethane (Tris), pH 6.8), and the lysates were heated to 100° C. for 5 minutes. Proteins in the lysate were separated by polyacrylamide gel electrophoresis and electrophoretically transferred to nitrocellulose. The membrane was washed once in 10 mM Tris, pH 7.2, 150 mM NaCl, 0.01% Azide (TNA), and blocked overnight in TNA containing 5% bovine serum albumin and 1% ovalbumin. The membrane was blotted for 2 hours with antiphosphotyrosine antibody (UBI, 1 μg/mL in blocking buffer) and then washed twice in TNA, once in TNA containing 0.05% Tween-20 detergent and 0.05% nonidet P-40 detergent and twice in TNA. […] Band intensities were determined with a Molecular Dynamics laser densitometer.
Duplicate sets of cells were treated with a range of concentrations of the designated compound to be tested as an inhibitor for 15 minutes. The cells were then stimulated with 100 ng/mL of EGF for 5 minutes and extracts made as described under the Western Blotting Procedure.

[3] = target: T1, EGF receptor autophosphorylation in A431 cells; assay: Irreversibility test: recovery of EGF receptor autophosphorylation after washout; type: cell-based; conditions: for % Control After 2-Hour Incubation / % Control After 8 Hours in Drug-Free Media Incubation: 2 μM inhibitor; for % Control After 2-Hour Incubation: EGFR autophosphorylation; for % Control After 8 Hours in Drug-Free Media Incubation: washed, 8 hours drug-free; for remaining activity at 2 µM: A-431, A431 cells treated 2 hours with 2 μM, read-out: % of Control Autophosphorylation
Method: as §1
Duplicate sets of cells were treated with 2 μM of designated compound to be tested as an irreversible inhibitor for either 1 or 2 hours. One set of cells was then stimulated with 100 ng/mL of EGF for 5 minutes and extracts made as described under the western blotting procedure. The other set of cells were washed free of the compound with warmed serum-free media, incubated for 2 hours, washed again, incubated another 2 hours, washed again, and then incubated a further 4 hours. This set of cells was then stimulated with EGF and extracts made similar to the first set of cells.

c-src tyrosine kinase = c-src tyrosine kinase (UniProt P00523); assay: Tyrosine kinase assay, c-src; type: biochemical
[4] = target: T2, insulin receptor intracellular kinase domain (Homo sapiens, UniProt P06213); assay: Tyrosine kinase assay, insulin receptor; type: biochemical
T2 construct: Assays using intracellular kinase domains of PDGF, FGF, and insulin receptors
T2 sequence (P06213 1023-1298 limits assumed): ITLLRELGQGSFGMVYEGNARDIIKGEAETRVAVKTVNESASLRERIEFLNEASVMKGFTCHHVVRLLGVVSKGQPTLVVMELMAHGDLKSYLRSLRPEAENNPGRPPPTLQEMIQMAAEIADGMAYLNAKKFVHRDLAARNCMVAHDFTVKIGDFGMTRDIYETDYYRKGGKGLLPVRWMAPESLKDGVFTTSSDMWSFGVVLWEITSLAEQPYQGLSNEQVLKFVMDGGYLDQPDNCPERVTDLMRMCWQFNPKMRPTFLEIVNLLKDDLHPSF

[5] = target: T3, FGF receptor intracellular kinase domain (FGF1) (Homo sapiens, UniProt P11362); assay: Tyrosine kinase assay, FGF receptor; type: biochemical
T3 construct: Assays using intracellular kinase domains of PDGF, FGF, and insulin receptors
T3 sequence (P11362 478-767 limits assumed): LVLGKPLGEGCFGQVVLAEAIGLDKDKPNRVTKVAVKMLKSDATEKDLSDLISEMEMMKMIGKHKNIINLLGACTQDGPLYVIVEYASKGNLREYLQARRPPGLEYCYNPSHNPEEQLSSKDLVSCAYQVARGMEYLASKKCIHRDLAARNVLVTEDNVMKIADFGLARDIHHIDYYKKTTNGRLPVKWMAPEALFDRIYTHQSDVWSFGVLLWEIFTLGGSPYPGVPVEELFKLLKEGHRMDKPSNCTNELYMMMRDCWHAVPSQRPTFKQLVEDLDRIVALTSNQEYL

[6] = test system: A431 human epidermoid carcinoma cells; assay: Growth inhibition assay in A431 cells; type: cell-based; conditions: A-431, 72 hours, cell count, read-out: IC50, inhibition of proliferation in A431 cells
Method: A431 human epidermoid carcinoma cells were obtained from the American Type Culture Collection, Rockville, Md. and maintained as monolayers in dMEM (Dulbecco's modified eagle medium)/F12, 50:50 (Gibco/BRL) containing 10% fetal bovine serum. […] The plates were incubated for 72 hours at 37° C. in a humidified atmosphere containing 5% CO2 in air. Cell growth was determined by cell count with a Coulter Model AM electronic cell counter (Coulter Electronics, Inc., Hialeah, Fla.).

[7] = test system: NIH 3T3 fibroblast transfected with the h-EGF receptor; assay: EGFR tumor xenograft in nude mice
Method: (§2) Female nude mice (NCr nu/nu, Taconic Farms) 18-20 g were implanted SC with tumor fragments (approximately 30 mg) in the region of the right axilla on Day 0. […] The vehicle was 6% dimethyl acetamide in 50 mM lactate buffer, pH 4.0Tumor volumes were recorded three times per week by measuring the length and width of the individual tumors and calculating the mass in milligrams according to the formula (a×b^2)/2, where a and b are the length and width of the tumor. Percent T/C (treated/control) was calculated based on the ratio of the median tumor volume of the treated tumors compared with the median tumor volume of the control tumors on specified measurement days.

[8] = In vivo toxicity on IP dosing bid (no tumor named)
[9] = test system: MCF7 human breast carcinoma; assay: MCF-7 tumor xenograft; type: in vivo, mice
Method: as §2

[10] = test system: murine 16/c mammary adenocarcinoma; assay: Murine 16/c mammary adenocarcinoma model; type: in vivo, mice; conditions: doses of up to 120 mg/kg bid
Method: as §2

[11] = test system: A431 human epidermoid carcinoma; assay: A431 tumor xenograft; type: in vivo, mice
Method: as §2

[12] = test system: SK-OV-3 human ovarian carcinoma; assay: SK-OV-3 tumor xenograft; type: in vivo, mice; conditions: ID dosing bid Days 10-14, 17-21, 24-28, 30 mg/kg
Method: as §2

[13] = isolated EGFR kinase, read-out: EGFR Tyrosine Kinase IC50
[14] = EGF-stimulated EGFR autophosphorylation in A431 cells

Sequence of EGF receptor tyrosine kinase (P00533 25-1210): as the sequence (P00533 25-1210) above

Question: What does the source list for `C=CC(=O)Nc1ccc2c(Nc3cccc(Br)c3)ncnc2c1` [Example 3, N-[4-(3-Bromo-phenylamino)-quinazolin-7-yl]acrylamide]?
Answer: specificity for the EGF receptor tyrosine kinase as opposed to other tyrosine kinase enzymes ([1]; Table 4): very high specificity; IC50 ([1]; Table 4, read-out: EGFR IC50): 0.36 nM; IC50 [1, 13]: 0.36 nM; IC50 [2, 14]: 14 nM; % Control After 2-Hour Incubation ([3]; A431 cells): 1%; % Control After 8 Hours in Drug-Free Media Incubation ([3]; A431 cells): 13%; time required for return of 50% of the activity ([3]; A431 cells, 2 μM, drug-free media (Table 3)): 21 h; remaining activity at 2 µM ([3]; 0 hours in drug-free media): 0%; remaining activity at 2 µM ([3]; 4 hours in drug-free media): 12%; remaining activity at 2 µM ([3]; 8 hours in drug-free media): 23%; remaining activity at 2 µM ([3]; 23 hours in drug-free media): 54%; inhibition at 2 µM ([3]; A-431, A431 cells, 2 μM, end of 8 hours washoff, read-out: inhibition of the enzyme (kinase activity) after washoff): 89%; IC50 (c-src tyrosine kinase): > 2500 nM; IC50 [4]: > 50000 nM; IC50 [5]: > 50000 nM; IC50 [6]: 300 ± 90 nM; % T/C ([7]; 3 mg/kg/injection, Day 7): 115%; % T/C ([7]; 3 mg/kg/injection, Day 10): 138%; % T/C ([7]; 3 mg/kg/injection, Day 12): 113%; % T/C ([7]; 30 mg/kg/injection, Day 7): 48%; % T/C ([7]; 30 mg/kg/injection, Day 10): 66%; % T/C ([7]; 30 mg/kg/injection, Day 12): 53%; % T/C ([7]; 100 mg/kg/injection, Day 7): 57%; % T/C ([7]; 100 mg/kg/injection, Day 10): 70%; % T/C ([7]; 100 mg/kg/injection, Day 12): 57%; activity against tumor growth ([7]; 10 or 3 mg/kg/injection IP every 12 hours Days 3-7): No activity; growth delay ([7]; EGFR tumor, IP bid Days 1 through 13, 75 mg/kg): 5 days; activity ([7]; EGFR tumor, IP bid Days 1 through 13, 300 mg/kg): no activity; growth delay ([7]; EGFR tumor, IP bid Days 1 through 13, 190 and 120 mg/kg): 1 days; growth delay ([7]; EGFR tumor, IP bid Days 3 through 7, 30 mg/kg): 2.5 days; growth delay ([7]; EGFR tumor, IP bid Days 3 through 7, 100 mg/kg): 4 days; weight loss, lethality, or clinical signs of toxicity ([7]; any dose level, IP every 12 hours Days 3-7): No weight loss, lethality, or clinical signs of toxicity

Question: With `C=CC(=O)Nc1cc2c(Nc3cccc(Br)c3)ncnc2cc1OCCCN1CCN(C)CC1` [Example 24, N-[4-[(3-Bromophenyl)amino]-7-[3-(4,N-methyl-1,N-piperazino)propoxy]quinazolin-6-yl]acrylamide] as the compound, how does the IC50 ([1]; read-out: EGFR Tyrosine Kinase IC50) read?
Answer: 4 nM

Question: What about the IC50 [2] of the same compound?
Answer: 7.9 nM

Question: What about the melting point of the same compound?
Answer: 105 to 107 °C

Question: For `C=CC(=O)Nc1cc2c(Nc3cccc(C)c3)ncnc2cc1OCCCN1CCOCC1` [Example 22, N-[4-[(3-Methylphenyl)amino]-7-[3-(4-moroholino)-propoxy]quinazolin-6-yl]acrylamide], which IC50 [1, 13] is on record?
Answer: 1.5 nM

Question: And the IC50 [2, 14]?
Answer: 27 nM

Question: What about the “% Control After 2-Hour Incubation” value ([3]; A431 cells) of the same compound?
Answer: 0%

Question: And the “% Control After 8 Hours in Drug-Free Media Incubation” value ([3]; A431 cells)?
Answer: 0%

Question: What about the melting point of the same compound?
Answer: 69 to 72 °C

Question: Which IC50 [1, 13] does the source give for `CC(=O)N(c1cccc(Br)c1)c1ncnc2ccc(N3C(=O)C=CC3=O)cc12` [Example 58, N-(3-Bromo-phenyl)-N-[6-(2,5-dioxo-2,5-dihydro-pyrrol-1-yl)-quinazolin-4-yl]-acetamide] here?
Answer: 124 nM

Question: What about the IC50 [2, 14] of the same compound?
Answer: > 500 nM

Question: And the “% Control After 2-Hour Incubation” value ([3]; A431 cells)?
Answer: 81%

Question: What about the “% Control After 8 Hours in Drug-Free Media Incubation” value ([3]; A431 cells) of the same compound?
Answer: 95%

Question: And the melting point?
Answer: 174 to 175 °C

Question: With `C=CS(=O)(=O)Nc1cc2c(Nc3cccc(Br)c3)ncnc2cn1` [Example 40, N-[4-(3-Bromo-phenylamino)-pyrido[3,4-d]pyrimidin-6-yl]-ethenylsulfonamide] as the compound, how does the toxicity ([8]; 48 and 20 mg/kg) read?
Answer: toxic

Question: What does the source list for `C=CC(=O)Nc1ccc2c(c1)sc1c(Nc3cccc(Br)c3)ncnc12` [Example 44, N-[4-(3-Bromo-phenylamino)-benzo[b]thieno [3,2-d]pyrimidin-7-yl]acrylamide]?
Answer: IC50 [1, 13]: 21 nM; IC50 [2, 14]: 327 nM; % Control After 2-Hour Incubation ([3]; A431 cells): 13%; % Control After 8 Hours in Drug-Free Media Incubation ([3]; A431 cells): 42%; melting point: 251 to 252.4 °C

Question: What does the source list for `C=CC(=O)Nc1ccc2ncnc(Nc3cccc(Br)c3)c2c1` [Example 11, N-[4-[(3-Bromophenyl)amino]quinazolin-6-yl]acrylamide]?
Answer: growth delay ([9]; IP bid Days 1-5, 8-12, 15-19, 28 mg/kg): 22.9 days; growth delay ([9]; IP bid Days 1-5, 8-12, 15-19, 47 mg/kg): 17.4 days; activity [10]: Inactive; growth delay ([11]; IP bid Days 7-11, 21-25, 28 mg/kg): 28.2 days; growth delay ([11]; PO once daily Days 7-21, 100 mg/kg): 2 days; growth delay ([11]; PO once daily Days 7-21, 200 mg/kg): 3.5 days; growth delay [12]: 1.2 days

Question: For `C=CC(=O)Nc1cc2c(Nc3cccc(Br)c3)ncnc2cc1OCCCN1CCOCC1` [Example 21, N-[4-[(3-Bromophenyl)amino]-7-[3-(4-morpholino)propoxy]quinazolin-6-yl]acrylamide], which toxicity ([8]; 48 mg/kg) is on record?
Answer: toxic

Question: For `C=CC(=O)Nc1ccc2c(Nc3cccc(C)c3)ncnc2c1` [Example 13, N-[4-(3-Methyl-phenylamino)-quinazolin-7-yl]acrylamide], which IC50 [1, 13] is on record?
Answer: 1.6 nM

Question: What about the IC50 [2, 14] of the same compound?
Answer: 90 nM

Question: What about the “% Control After 2-Hour Incubation” value ([3]; A431 cells) of the same compound?
Answer: 1%

Question: What about the “% Control After 8 Hours in Drug-Free Media Incubation” value ([3]; A431 cells) of the same compound?
Answer: 90%

Question: What about the melting point of the same compound?
Answer: 269.7 to 270 °C

Question: With `C=CC(=O)N(CCCN1CCOCC1)c1ccc2c(Nc3cccc(Br)c3)ncnc2c1` [Example 4, N-[4-[(3-Bromophenyl)amino]quinazolin-7-yl]-N-[3-morpholinopropyl]acrylamide] as the compound, how does the IC50 [1, 13] read?
Answer: 89 nM

Question: And the IC50 [2, 14]?
Answer: 2090 nM

Question: And the “% Control After 2-Hour Incubation” value ([3]; A431 cells)?
Answer: 55%

Question: What about the “% Control After 8 Hours in Drug-Free Media Incubation” value ([3]; A431 cells) of the same compound?
Answer: 98%

Question: And the melting point?
Answer: 86 to 88 °C (dec.)

Question: For `C=CC(=O)Nc1cc2c(Nc3cccc(Br)c3)ncnc2cc1OCCCCN(C)C` [Example 26, N-[4-[(3-Bromophenyl)amino]-7-[4-(N,N-dimethyl-amino)butoxy]quinazolin-6-yl]acrylamide], which IC50 [1, 13] is on record?
Answer: 1.7 nM

Question: And the IC50 [2, 14]?
Answer: 3 nM

Question: And the “% Control After 2-Hour Incubation” value ([3]; A431 cells)?
Answer: 0%

Question: What about the “% Control After 8 Hours in Drug-Free Media Incubation” value ([3]; A431 cells) of the same compound?
Answer: 0%

Question: And the melting point?
Answer: 112 to 115 °C

Question: Which IC50 [1, 13] does the source give for `C=CC(=O)Nc1ccc2ncnc(Nc3cccc(Br)c3)c2n1` [Example 41, N-[4-(3-Bromo-phenylamino)-pyrido [3,2-d]pyrimidin-6-yl]-acrylamide] here?
Answer: 1.1 nM

Question: What about the IC50 [2, 14] of the same compound?
Answer: 5.6 nM

Question: What about the “% Control After 2-Hour Incubation” value ([3]; A431 cells) of the same compound?
Answer: 0%

Question: And the “% Control After 8 Hours in Drug-Free Media Incubation” value ([3]; A431 cells)?
Answer: 0%

Question: And the melting point?
Answer: 226 to 228 °C

Question: With `C=CC(=O)Nc1ccc2ncnc(Nc3cccc(C)c3)c2c1` [Example 19, N-[4-[(3-methylphenyl)amino]quinazolin-6-yl]acrylamide] as the compound, how does the IC50 [1, 13] read?
Answer: 0.42 nM

Question: What about the IC50 [2, 14] of the same compound?
Answer: 4.7 nM

Question: What about the “% Control After 2-Hour Incubation” value ([3]; A431 cells) of the same compound?
Answer: 0%

Question: And the “% Control After 8 Hours in Drug-Free Media Incubation” value ([3]; A431 cells)?
Answer: 0%

Question: What about the growth delay ([11]; SC-Infusion (Alzet) Days 9-23, 12 mg/kg/day) of the same compound?
Answer: 15 days

Question: What about the growth delay ([11]; SC-Infusion (Alzet) Days 9-23, 24 mg/kg/day) of the same compound?
Answer: 14 days

Question: And the growth delay [12]?
Answer: 1.3 days

Question: What about the growth delay ([7]; EGFR tumor, IP bid for 14 days, 48 mg/kg) of the same compound?
Answer: 6.4 days

Question: And the growth delay ([7]; EGFR tumor, IP bid for 14 days, 77 mg/kg)?
Answer: 7.9 days

Question: And the growth delay ([7]; EGFR tumor, IP bid for 14 days, 124 mg/kg)?
Answer: 11.8 days

Question: What about the toxicity ([7]; EGFR tumor, IP bid for 14 days, 200 mg/kg) of the same compound?
Answer: toxic

Question: What does the source list for `C=CC(=O)Nc1cc2c(Nc3cccc(C)c3)ncnc2cn1` [Example 37, N-[4-(3-Methyl-phenylamino)-pyrido [3,4-d]pyrimidin-6-yl]acryl]?
Answer: IC50 [1, 13]: 0.48 nM; IC50 [2, 14]: 8.3 nM; % Control After 2-Hour Incubation ([3]; A431 cells): 0%; % Control After 8 Hours in Drug-Free Media Incubation ([3]; A431 cells): 0%; melting point: 221 to 223 °C (dec.)
